Experimental data reported in patent US20180340225A1 (SHANGHAI INSTITUTE FOR ENDOCRINE AND METABOLIC DISEASES, priority 2015, published 2018).

System: patients with Type 2 diabetes
Assay: Clinical efficacy indexes before and after 3 months of Acarbose treatment in naïve patients with Type 2 diabetes, by enterotype
Type: in vivo, human
Settings: Prevotella enterotype, After treatment
Procedure: For naïve patients with Type 2 diabetes, their liver and kidney functions, blood glucose and lipid levels, intestinal hormones, inflammatory factors, and cardiovascular risk-related factors are evaluated before medication. Their stool, urine, and blood samples are retained. […] The patients' blood glucose levels are followed up every month within 3 months, and the medication is adjusted according to the blood glucose level. Three months later, the pre-medication assessment is repeated, and the urine, stool and blood samples are retained.
a) A randomized, opened, positive control method is adopted to collect the naïve patients with Type 2 diabetes and normal controls of their spouses. […] The newly diagnosed patients of Type 2 diabetes without medication receive routine examinations, including the retention of stool and blood samples.
i. Draw venous blood 15 ml under fasting condition, of which, 1.5 ml is used for detection of plasma glucose, 6.5 ml is added to ordinary tubes (including aprotinin, DPPV inhibitor), and 6.5 ml is added to anticoagulant tubes (including heparin and RNA later)
ii. Centrifuge the blood in ordinary tube at 4° C., when serum is separated out, draw about 3 ml, and divide to three 1.5 ml Eppendorf on average, then tighten the tube caps;
iii. Centrifuge the anticoagulation blood immediately at 4° C., to separate out about 3 ml of plasma, then divide to three 1.5 ml imported RNAase free Eppendorf tubes on average, […]

SMILES: C[C@H]1O[C@H](O[C@H]2[C@H](O)[C@@H](O)[C@@H](O[C@H]3[C@H](O)[C@@H](O)C(O)O[C@@H]3CO)O[C@@H]2CO)[C@H](O)[C@@H](O)[C@@H]1N[C@H]1C=C(CO)[C@@H](O)[C@H](O)[C@H]1O (stereo partly shown) [Acarbose]
- AKP Mean: 77.5
- ALB Mean: 44.39
- ALT Mean: 44.36
- APOA Mean: 1.267
- APOB Mean: 0.9273
- AST Mean: 29.36
- Adipisin Mean: 3221619.467
- Adpn Mean: 10063264.07
- BMI Mean: 25.11
- BW Mean: 72.63
- CP0 Mean: 2.485
- CP30 Mean: 2.802
- CP60 Mean: 3.609
- CP120 Mean: 5.305
- CP180 Mean: 4.735
- DBIL Mean: 6.293
- DBP Mean: 74.93
- ENDOM Mean: 14.27
- Endothelin Mean: 4.776
- FABP3 Mean: 2147
- FABP4 Mean: 10510.4
- FGF1M Mean: 24.33
- FGF2M Mean: 13.67
- FGF19M Mean: 19.3
- FGF23M Mean: 43.47
- G30 Mean: 7.601
- G60 Mean: 9.055
- G120 Mean: 9.171
- G180 Mean: 7.853
- GIP0 Mean: 57.4
- GIP30 Mean: 208.4
- GIP60 Mean: 217.2
- GIP120 Mean: 227.8
- GIP180 Mean: 194.8
- GMCSFM Mean: 67.97
- GO Mean: 6.712
- HB Mean: 147.8
- HBA1C Mean: 6.313
- HDL Mean: 2.869
- HGF Mean: 400.9
- HIP Mean: 97.21
- HOMA.IR Mean: 3.327
- IFNr1 Mean: 38.8
- IL1B Mean: 0.9107
- IL1bM Mean: 22.23
- IL2M Mean: 58.77
- IL4M Mean: 31.074
- IL5M Mean: 43.97
- IL6M Mean: 40.53
- IL6 Mean: 2.665
- IL8 Mean: 15.44
- IL9M Mean: 84.9
- IL10 Mean: 1.798
- IL12 Mean: 9.944
- IL13 Mean: 279.4
- IL15M Mean: 291.8
- IL17AM Mean: 32.03
- IL17EM Mean: 21.23
- IL17FM Mean: 232.6
- IL21 Mean: 34.47
- IL22M Mean: 30.5
- IL23M Mean: 41.7
- IL27 Mean: 73.1
- IL28a Mean: 18.37
- IL31M Mean: 112.3
- IL33M Mean: 43.5
- INS0 Mean: 11.734
- INS30 Mean: 14.21
- INS60 Mean: 23.404
- INS120 Mean: 27.84
- INS180 Mean: 20.88
- K Mean: 4.054
- LBP Mean: 17.616
- LDL Mean: 1.169
- LEPTIN Mean: 4522
- LPA Mean: 214.8
- Lymph Mean: 28.21
- MCP1 Mean: 252.8
- MIP3A Mean: 29.94
- NEU Mean: 63.59
- NGAL Mean: 174248.3333
- NGF Mean: 2.434
- Na Mean: 142.2
- PAI1 Mean: 61006.73333
- PDGFAA Mean: 4507
- PDGFAABB Mean: 24006.8
- PP0 Mean: 69.67
- PP30 Mean: 376.7
- PP60 Mean: 318.92
- PP120 Mean: 260.1
- PP180 Mean: 204.7
- RANTES Mean: 47562.53333
- RBC Mean: 4.945
- RCv Mean: 0.4421
- SBP Mean: 119.8
- TBIL Mean: 14.9
- TC Mean: 4.883
- TG Mean: 1.694
- TNFBM Mean: 44.7
- TNFa Mean: 4.572
- TPRO Mean: 73.55
- Trophonin M Mean: 17.9
- WAIST Mean: 88.93
- WBC Mean: 6.146
- WHR Mean: 0.9136
- bun Mean: 326.5
- creatine Mean: 67.42
- crp Mean: 19.638
- egf Mean: 267.604
- fetuinA Mean: 417.3
- fgf1 Mean: 13.79
- fgf2 Mean: 43.98
- fgf21M Mean: 97.93
- fgf21 Mean: 0.296
- monocyte Mean: 5.829
- mpo Mean: 467.3
- oscatinM Mean: 101.1
- pCP0 Mean: 1066
- pCP30 Mean: 1362
- pCP60 Mean: 1935.42
- pCP120 Mean: 2723.04
- pCP180 Mean: 2526
- pGLP10 Mean: 3.644
- pGLP130 Mean: 11.41
- pGLP160 Mean: 13.72
- pGLP1120 Mean: 9.07
- pGLP1180 Mean: 6.458
- pHOMA.IR Mean: 2.717
- pgh0 Mean: 53.4025
- pgh30 Mean: 64.28
- pgh60 Mean: 56.35
- pgh120 Mean: 42.5275
- pgh0180 Mean: 50.87
- pgluc0 Mean: 39.2
- pgluc30 Mean: 41.17
- pgluc60 Mean: 36.68
- pgluc120 Mean: 29.63
- pgluc180 Mean: 30.43
- pins0 Mean: 416.3
- pins30 Mean: 639.9
- pins60 Mean: 969
- pins120 Mean: 1373
- pins180 Mean: 1153
- platelet Mean: 206.3
- ppyy0 Mean: 43.57
- ppyy30 Mean: 64.34
- ppyy60 Mean: 56.78
- ppyy120 Mean: 54.02
- ppyy180 Mean: 51.59
- rGT Mean: 43.12
- resistin Mean: 25013.66667
- sicam1 Mean: 123
- svcam1 Mean: 545.498
- urea Mean: 4.954
- vegfa Mean: 340.2
- vegfc Mean: 128.7
- vegfd Mean: 195.1
